The target of experiment [1] is Ephrin type-A receptor 2 (Homo sapiens) (UniProt P29317). Briefly: Antagonist activity at EphA2 in human U-251 cells assessed as inhibition of EphA2 phosphorylation at 10 to 30 uM preincubated for 20 mins followed by ephrin-A1-Fc addition and measured after 10 mins by ELISA assay. In kind it is cell-based. The note with it: filed as antagonist, dose 10-30 µM, time 30.0 min.

A further experiment deals with U-251. Briefly: Antiproliferative activity against human U-251 cells assessed as increase in cell death at 30 uM measured after 48 hrs by MTT assay. Type of experiment: functional, cell-based.

SMILES strings stand for the structures. Activity calls are given as the source filed them. The rule behind the calls is not given here.

Sequence of Ephrin type-A receptor 2 (Homo sapiens) (P29317 whole entry): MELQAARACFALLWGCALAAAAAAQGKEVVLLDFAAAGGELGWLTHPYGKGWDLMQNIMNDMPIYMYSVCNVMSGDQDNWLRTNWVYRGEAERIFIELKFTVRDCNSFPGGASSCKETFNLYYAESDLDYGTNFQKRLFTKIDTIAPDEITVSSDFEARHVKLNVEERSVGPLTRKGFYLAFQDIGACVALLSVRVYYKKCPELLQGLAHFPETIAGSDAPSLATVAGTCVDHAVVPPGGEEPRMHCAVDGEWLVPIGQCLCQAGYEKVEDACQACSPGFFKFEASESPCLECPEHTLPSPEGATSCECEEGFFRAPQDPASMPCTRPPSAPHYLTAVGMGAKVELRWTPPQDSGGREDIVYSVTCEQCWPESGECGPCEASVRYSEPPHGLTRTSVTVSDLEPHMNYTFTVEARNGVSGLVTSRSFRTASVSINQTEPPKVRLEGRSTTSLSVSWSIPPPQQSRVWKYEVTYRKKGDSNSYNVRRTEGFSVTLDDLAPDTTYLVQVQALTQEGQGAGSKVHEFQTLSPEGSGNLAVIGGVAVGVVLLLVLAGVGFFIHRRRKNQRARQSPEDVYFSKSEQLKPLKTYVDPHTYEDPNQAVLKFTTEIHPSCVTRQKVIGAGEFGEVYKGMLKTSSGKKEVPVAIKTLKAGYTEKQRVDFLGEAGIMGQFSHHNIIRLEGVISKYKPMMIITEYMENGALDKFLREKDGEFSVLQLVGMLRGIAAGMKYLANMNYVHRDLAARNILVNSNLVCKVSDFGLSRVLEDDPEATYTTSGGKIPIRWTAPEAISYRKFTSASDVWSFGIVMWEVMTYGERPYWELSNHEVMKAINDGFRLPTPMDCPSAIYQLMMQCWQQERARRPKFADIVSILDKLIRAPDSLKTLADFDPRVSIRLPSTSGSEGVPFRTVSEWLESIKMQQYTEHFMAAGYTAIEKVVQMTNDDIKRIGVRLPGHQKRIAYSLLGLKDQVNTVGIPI

Take `C[C@H](CCC(=O)N[C@H](CC(=O)O)Cc1cn(S(=O)(=O)c2ccc(C(F)(F)F)cc2)c2ccccc12)[C@H]1CC[C@H]2[C@@H]3CC=C4C[C@@H](O)CC[C@]4(C)[C@H]3CC[C@]12C`: the outcome (in experiment [1]; in the experiment on U-251) was Active.

Source of the values: ChEMBL document CHEMBL5614382, “Discovery of a new 1-(phenylsulfonyl)-1H-indole derivative targeting the EphA2 receptor with antiproliferative activity on U251 glioblastoma cell line” (Eur J Med Chem, 2024).
